Laboratory results published in paper PMC11644009 (Molecules, 2024).

Key:
[1] = test system: influenza virus A/Vladivostok/2/09 (H1N1); test: Virus inhibitory activity on chicken embryo model (chemical therapeutic index); format: in vivo; conditions: samples 0.0016%–0.2% (0.003–0.4 mg per chicken embryo), Rimantadine 10 µg/mL, Tamiflu 6 µg/mL
Method: Rimantadine® (Olainfarm, Olaine, Latvia), alpha-methyltricyclo[3.3.1.1/.7]decan-1-methanamine (in the form of hydrochloride)) was used as a comparison drug at a dose of 10 µg /mL and Tamiflu® (Oseltamivir, Hoffmann-La Roche, Basel, Switzerland, (3R,4R,5S)-4-acetylamino-5-amino-3-(1-ethylpropoxy)-1-cyclohexene-1-carboxylic acid ethyl […], phosphate)) at a dose of 6 µg /mL.
To determine the chemical therapeutic index (CTI), the virus inhibitory activity of samples was studied at concentrations from 0.0016% to 0.2%, which corresponded to doses of 0.003–0.4 mg per chicken embryo (0.06–8 mg/kg) (Table 2).

[2] = test system: influenza virus A/Vladivostok/2/09 (H1N1); format: in vivo; conditions: compound 0.2%, 0.4 mg/ch.e. (8 mg/kg)
[3] = test system: neuraminidase activity of influenza virus A/Vladivostok/2/09 (H1N1); test: Effect on neuraminidase activity (fluorescent kit); format: biochemical; conditions: maximum dose 1 mg/100 μL
Method: To determine the effect of lupinine derivatives 1–5 on neuraminidase activity, the maximum dose of 1 mg/100 μL was used. It was established (Figure 3) that compounds 4 and 5 were able to alter the neuraminidase activity of influenza viruses. It was shown that these two triazole-containing lupinines suppressed neuraminidase activity by no more than 40%.
The determination of the neuraminidase activity of the studied samples was carried out using a fluorescent kit in accordance with the manufacturer’s recommendations (AbCam, Cambridge, UK). The non-fluorescent neuraminidase substrate becomes highly fluorescent when cleaved by neuraminidase. The signal is easily read by fluorescence at Ex/Em = ~320/~450 nm.
Figure 3 The influence of the studied samples on neuraminidase activity.

[4] = test system: hemagglutinating activity of influenza A/Vladivostok/2/09 (H1N1) virus; test: Effect on hemagglutinating activity of influenza virus; conditions: maximum dose 1 mg/100 μL
Method: The hemagglutinating activity of viruses was determined according to the standard method [53] using a 0.75% suspension of chicken erythrocytes. When determining the effect of the studied sample on hemagglutinating properties, the sample in different doses was mixed with the virus, and after 30 min of incubation at 37 °C, the hemagglutinating activity was determined using the standard method.

| Structure (SMILES) | Chemical Therapeutic Index of the Studied Sample [1] | Decrease in Influenza Virus Infectivity Titer, lg [2] | Suppression of neuraminidase activity [3] | Suppression of hemagglutinating activity [4] |
| --- | --- | --- | --- | --- |
| COc1ccc(-c2cn(C[C@@H]3CCCN4CCCC[C@H]34)nn2)cc1 [Compound 1, (1S,9aR)-1-{[4-(4-Methoxyphenyl)-1H-1,2,3-triazol-1-yl]methyl}octahydro-2H-quinolizine] | 64.0 |  |  |  |
| Cc1cccc(-c2cn(C[C@@H]3CCCN4CCCC[C@H]34)nn2)c1 [Compound 2, (1S,9aR)-1-{[4-(m-Tolyl)-1H-1,2,3-triazol-1-yl]methyl}octahydro-2H-quinolizine] | 57.0 | 0.8 lg |  |  |
| c1ccc(-c2cn(C[C@@H]3CCCN4CCCC[C@H]34)nn2)cc1 [Compound 3, (1S,9aR)-1-[(4-Phenyl-1H-1,2,3-triazol-1-yl)methyl]octahydro-2H-quinolizine] | 8.1 | 0.0 lg |  |  |
| O=Cc1ccc(OCc2cn(C[C@@H]3CCCN4CCCC[C@H]34)nn2)cc1 [Compound 4, 4-({1-[((1S,9aR)-Octahydro-2H-quinolizin-1-yl)methyl]-1H-1,2,3-triazol-4-yl}methoxy)benzaldehyde] | 40.0 |  | no more than 40% |  |
| CCc1cc(C(=O)OCc2cn(C[C@@H]3CCCN4CCCC[C@H]34)nn2)c(O)c(C(C)(C)C)c1 [Compound 5, {1-[((1S,9aR)-Octahydro-2H-quinolizin-1-yl)methyl]-1H-1,2,3-triazol-4-yl}methyl-3-tert-butyl-2-hydroxy-5-ethylbenzoate] | >100.0 |  | no more than 40% | no less than 25% |
| CC(N)C12CC3CC(CC(C3)C1)C2 (stereo not drawn) [Rimantadine, alpha-methyltricyclo[3.3.1.1/.7]decan-1-methanamine, reference compound] | 30 |  |  |  |
| CCOC(=O)C1=C[C@@H](OC(CC)CC)[C@H](NC(C)=O)[C@@H](N)C1 [Tamiflu, (3R,4R,5S)-4-acetylamino-5-amino-3-(1-ethylpropoxy)-1-cyclohexene-1-carboxylic acid ethyl ether, phosphate, reference compound] | 11.0 |  |  |  |
